Experimental data reported in paper PMC9413219 (Journal of Agricultural and Food Chemistry, 2022).

Tested on: rumen inoculum from fistulated cows
Test: In vitro batch culture incubation of a Senecio PA mixture with rumen inoculum
Format: in vitro ADME
Conditions: incubation with rumen inoculum up to 20 h

SMILES	degradation rate in rumen incubation (half-life ranking)
C/C=C1/C[C@@H](C)[C@@](C)(O)C(=O)OC/C2=C/CN(C)CC[C@@H](OC1=O)C2=O [senkirkine]	slower degradation rates
C=C1C/C(=C/C)C(=O)O[C@@H]2CCN3CC=C(COC(=O)[C@]1(C)O)[C@H]23 [seneciphylline]	fastest degradation
C/C=C1/C[C@@H](C)[C@@](C)(O)C(=O)OCC2=CCN3CC[C@@H](OC1=O)[C@@H]23 [senecionine]	fastest degradation
C/C=C1/C[C@@]2(CO)O[C@@]2(C)C(=O)OCC2=CCN3CC[C@@H](OC1=O)[C@@H]23 [erucifoline]	ranged in the middle
